Here are results for 22 compounds from US10806726B2, “Methods of using indazole-3-carb oxamides and their use as Wnt/B-catenin signaling pathway inhibitors” (Samumed, LLC, priority 2016, dated 2020).

SMILES strings stand for the structures.

The test system of assay [1] is primary human mesenchymal stem cells (hMSCs). The assay is described as follows: Tenocyte differentiation screening in hMSCs (SCXA-positive cells, 4 days). Format: cell-based. Particulars: 96 h, fold change over DMSO. An excerpt:
Representative compounds were screened using primary human mesenchymal stem cells (hMSCs) to determine their ability to induce tenocyte differentiation (process by which tendon is developed).
Primary human mesenchymal stem cells (hMSCs) were purchased from Lonza (Walkersville, Md.) and expanded in Mesenchymal Stem Cell Growth Media (Lonza). Cells between passage 3 and 6 were used for the experiments.
Cells were fixed using 4% formaldehyde (Electron Microscopy Sciences), and stained with anti-Sclerasis (anti-SCXA) antibodies (Abgent, San Diego, Calif.) [Webb S., et. al., Retinoic acid receptor signaling preserves tendon stem cell characteristics and prevents spontaneous differentiation in vitro, Stem Cell Research & Therapy 2016, 7:45] overnight at 4° C. […] Number of cells positive for SCXA in each well was quantified using the Celllnsight CX5. Data was normalized to the average of 12 DMSO treated wells on the same plate using Dotmatics Studies module. The normalized averages (fold change over DMSO) of 3 replicate wells for each compound concentration were calculated. Due to solubility limitations of some of the compounds, values for higher doses were manually corrected and curve fitting and EC50 determinations were performed using Dotmatics Studies.
EC50 for each compound is reported.

Assay [2] has as its system Wnt-responsive promoter driving firefly luciferase in SW480 cells. As to the kind of experiment: Wnt reporter (SP5 promoter-luciferase) screening assay in SW480 cells. Format: cell-based. The note with it: Homo sapiens, 24-40 h, top concentration ten micromolar. An excerpt:
Another screening assay for Wnt activity is described as follows. Reporter cell lines can be generated by stably transducing cells of cancer cell lines (e.g., colon cancer) with a lentiviral construct that include a Wnt-responsive promoter driving expression of the firefly luciferase gene.
Lentiviral constructs can be made in which the SP5 promoter, a promoter having eight TCF/LEF binding sites derived from the SP5 promoter, is linked upstream of the firefly luciferase gene. The lentiviral constructs can also include a hygromycin resistance gene as a selectable marker. The SP5 promoter construct can be used to transduce SW480 cells, a colon cancer cell line having a mutated APC gene that generates a truncated APC protein, leading to de-regulated accumulation of β-catenin.
Cultured SW480 cells bearing a reporter construct can be distributed at approximately 10,000 cells per well into 96 well or 384 well plates. Compounds from a small molecule compound library can then be added to the wells in half-log dilutions using a ten micromolar top concentration. A series of control wells for each cell type receive only buffer and compound solvent. Twenty-four to forty hours after the addition of compound, reporter activity for luciferase can be assayed, for example, by addition of the BrightGlo luminescence reagent (Promega) and the Victor3 plate reader (Perkin Elmer). Readings can be normalized to DMSO only treated cells, and normalized activities can then be used in the EC50 calculations.

`O=C(Nc1ccccc1)c1n[nH]c2ccc(-c3cncc(CN4CCCCC4)c3)cc12` [compound 82, N-Phenyl-5-(5-(piperidin-1-ylmethyl)pyridin-3-yl)-1H-indazole-3-carboxamide]: the results for the 50% effective concentration (EC50) in assay [1] and in assay [2] were more than 100 µM and 0.143 to 0.188 µM, respectively.
In the same order, the values of `O=C(Nc1ccc(N2CCCC2)nc1)c1n[nH]c2ccc(-c3cncc(CN4CCC(F)(F)C4)c3)cc12` [compound 183, 5-(5-((3,3-Difluoropyrrolidin-1-yl)methyl)pyridin-3-yl)-N-(6-(pyrrolidin-1-yl)pyridin-3-yl)-1H-indazole-3-carboxamide] are more than 100 µM and 0.049 µM.
In the case of `CN(C)Cc1cncc(-c2ccc3[nH]nc(C(=O)Nc4cccnc4)c3c2)c1` [compound 40, 5-(5-((Dimethylamino)methyl)pyridin-3-yl)-N-(pyridin-3-yl)-1H-indazole-3-carboxamide], the 50% effective concentration (EC50) in assay [1] was found to be 5.17 µM; in assay [2], 0.065 µM.
The matching figures for `O=C(Nc1cnccc1C(F)(F)F)c1n[nH]c2ccc(-c3cncc(CN4CCCCC4)c3)cc12` [compound 47, 5-(5-(Piperidin-1-ylmethyl)pyridin-3-yl)-N-(4-(trifluoromethyl)pyridin-3-yl)-1H-indazole-3-carboxamide]: more than 100 µM and 0.071 µM.
In the case of `O=C(Nc1ccc(N2CCCC2)nc1)c1n[nH]c2ccc(-c3cncc(CN4CCCCC4)c3)cc12` [compound 71, 5-(5-(Piperidin-1-ylmethyl)pyridin-3-yl)-N-(6-(pyrrolidin-1-yl)pyridin-3-yl)-1H-indazole-3-carboxamide], the half-maximal effective concentration (EC50) in assay [1] is more than 100 µM; in assay [2], 0.025 µM.
In the same order, the values of `CN(C)Cc1cncc(-c2ccc3[nH]nc(C(=O)Nc4ccc(N5CCCC5)nc4)c3c2)c1` [compound 190, 5-(5-((Dimethylamino)methyl)pyridin-3-yl)-N-(6-(pyrrolidin-1-yl)pyridin-3-yl)-1H-indazole-3-carboxamide] are more than 100 µM and 1.2 µM.
In the same order, the values of `CN1CCN(Cc2cncc(-c3ccc4[nH]nc(C(=O)Nc5cccnc5)c4c3)c2)CC1` [compound 61, 5-(5-((4-Methylpiperazin-1-yl)methyl)pyridin-3-yl)-N-(pyridin-3-yl)-1H-indazole-3-carboxamide] are 12.3 µM and 0.239 µM.
The matching figures for `O=C(Nc1ccc(C(F)(F)F)nc1)c1n[nH]c2ccc(-c3cncc(NC(=O)C4CC4)c3)cc12` [compound 39, 5-(5-(Cyclopropanecarboxamido)pyridin-3-yl)-N-(6-(trifluoromethyl)pyridin-3-yl)-1H-indazole-3-carboxamide]: more than 100 µM and 0.065 µM.
Turning to `O=C(Nc1cccc(F)c1)c1n[nH]c2ccc(-c3cncc(CN4CCCCC4)c3)cc12` [compound 162, N-(3-Fluorophenyl)-5-(5-(piperidin-1-ylmethyl)pyridin-3-yl)-1H-indazole-3-carboxamide], the 50% effective concentration (EC50) is more than 100 µM in assay [1] and 0.426 µM in assay [2].
As for `CCOc1ccc(NC(=O)c2n[nH]c3ccc(-c4cncc(CN5CCCC5)c4)cc23)cn1` [compound 44, N-(6-Ethoxypyridin-3-yl)-5-(5-(pyrrolidin-1-ylmethyl)pyridin-3-yl)-1H-indazole-3-carboxamide], the EC50 in assay [1] was 25.1 µM; in assay [2], 0.158 µM.
The matching figures for `O=C(Nc1cccnc1)c1n[nH]c2ccc(-c3cncc(NC(=O)C4CC4)c3)cc12` [compound 41, 5-(5-(Cyclopropanecarboxamido)pyridin-3-yl)-N-(pyridin-3-yl)-1H-indazole-3-carboxamide]: 8.12 µM and 0.067 µM.
Consider `Cc1cc(NC(=O)c2n[nH]c3ccc(-c4cncc(CN5CCCCC5)c4)cc23)cnc1N1CCCC1` [compound 172, N-(5-Methyl-6-(pyrrolidin-1-yl)pyridin-3-yl)-5-(5-(piperidin-1-ylmethyl)pyridin-3-yl)-1H-indazole-3-carboxamide], for which the concentration for a half-maximal effect (EC50) was more than 100 µM in assay [1] and 0.06 µM in assay [2].
In the same order, the values of `O=C(Nc1ccc(N2CCC(O)CC2)nc1)c1n[nH]c2ccc(-c3cncc(CN4CCCCC4)c3)cc12` [compound 169, N-(6-(4-Hydroxypiperidin-1-yl)pyridin-3-yl)-5-(5-(piperidin-1-ylmethyl)pyridin-3-yl)-1H-indazole-3-carboxamide] are 4.91 µM and 0.049 µM.
On to `Cc1cc(NC(=O)c2n[nH]c3ccc(-c4cncc(CN5CCCCC5)c4)cc23)cnc1N1CCC1` [compound 173, N-(6-(Azetidin-1-yl)-5-methylpyridin-3-yl)-5-(5-(piperidin-1-ylmethyl)pyridin-3-yl)-1H-indazole-3-carboxamide], for which the results for the EC50 in assay [1] and in assay [2] were more than 100 µM and 0.036 µM, respectively.
In the same order, the values of `O=C(NC1CCCCC1)c1n[nH]c2ccc(-c3cncc(CN4CCCCC4)c3)cc12` [compound 77, N-Cyclohexyl-5-(5-(piperidin-1-ylmethyl)pyridin-3-yl)-1H-indazole-3-carboxamide] are 6.08 µM and 2.65 µM.
In the same order, the values of `CN(C)Cc1cncc(NC(=O)c2n[nH]c3ccc(-c4cncc(CN5CCCCC5)c4)cc23)c1` [compound 86, N-(5-((Dimethylamino)methyl)pyridin-3-yl)-5-(5-(piperidin-1-ylmethyl)pyridin-3-yl)-1H-indazole-3-carboxamide] are 5.27 µM and 0.066 µM.
In the same order, the values of `CN(C)Cc1cncc(-c2ccc3[nH]nc(C(=O)Nc4ccc(C(F)(F)F)nc4)c3c2)c1` [compound 26, 5-(5-((Dimethylamino)methyl)pyridin-3-yl)-N-(6-(trifluoromethyl)pyridin-3-yl)-1H-indazole-3-carboxamide] are more than 100 µM and 0.21 µM.
For the compound `O=C(Nc1cccc(-c2cccc(F)c2)c1)c1n[nH]c2ccc(-c3cccnc3)cc12` [compound 5, N-(3′-Fluorobiphenyl-3-yl)-5-(pyridin-3-yl)-1H-indazole-3-carboxamide], the values for the EC50 in assay [1] and in assay [2] were more than 100 µM and not below 10 µM, respectively.
On to `O=C(Nc1ccc(N2CCNCC2)nc1)c1n[nH]c2ccc(-c3cncc(CN4CCCCC4)c3)cc12` [compound 177, N-(6-(Piperazin-1-yl)pyridin-3-yl)-5-(5-(piperidin-1-ylmethyl)pyridin-3-yl)-1H-indazole-3-carboxamide], for which the EC50 came out at 5.17 µM in assay [1] and 0.183 µM in assay [2].
As for `O=C(Nc1ccc(C(F)(F)F)nc1)c1n[nH]c2ccc(-c3cncc(F)c3)cc12` [compound 2, 5-(5-fluoropyridin-3-yl)-N-(6-(trifluoromethyl)pyridin-3-yl)-1H-indazole-3-carboxamide], the EC50 in assay [1] was more than 100 µM; in assay [2], 5 µM.
`O=C(Nc1ccc(-c2ccc(F)cc2)nc1)c1n[nH]c2ccc(-c3cncc(CN4CCCCC4)c3)cc12` [compound 73, N-(6-(4-Fluorophenyl)pyridin-3-yl)-5-(5-(piperidin-1-ylmethyl)pyridin-3-yl)-1H-indazole-3-carboxamide]: the values for the EC50 in assay [1] and in assay [2] were more than 100 µM and 0.322 µM, respectively.
The matching figures for `NC(=O)c1ccc(NC(=O)c2n[nH]c3ccc(-c4cncc(CN5CCCCC5)c4)cc23)cn1` [compound 180, N-(6-carbamoylpyridin-3-yl)-5-(5-(piperidin-1-ylmethyl)pyridin-3-yl)-1H-indazole-3-carboxamide]: more than 100 µM and 0.013 µM.

A word on the EC50: it is the concentration needed to bring the measured effect to its halfway point. High values mean a less potent agent, low ones a more potent agent.
